For test [1], the system named is Rattus norvegicus. Kind of test: In vivo for 5-HTP accumulation in limbic system against reserpine-pretreated rats. The class given is functional.
For test [2], the target named is T1, D(2) dopamine receptor (Rattus norvegicus, UniProt P61169). Kind of test: Binding affinity against Dopamine receptor D2 from CHO-K1 cells, using [3H]U-86,170 as the radioligand. The format is cell-based.
Test [3] deals with Rattus norvegicus. The experiment in a line: In vivo for DOPA accumulation in corpus striatum against reserpine-pretreated rats. The class given is functional.
In test [4] the test system is Rattus norvegicus. Kind of test: The Compound was tested in vivo for DOPA accumulation in hemispheres (cortex) against reserpine-pretreated rats;I= inactive at the highest dose (12.5). The format is functional, organism-based.
The target in test [5] is 5-hydroxytryptamine receptor 1B (Homo sapiens, UniProt P28222). Kind of test: Binding affinity against 5-hydroxytryptamine 1D receptor beta expressed in CHO-K1 cells, using [3H]5-HT as the radioligand. The class given is cell-based. Conditions: read-out: Ki.
5-hydroxytryptamine receptor 1B, sequence (P28222 whole entry): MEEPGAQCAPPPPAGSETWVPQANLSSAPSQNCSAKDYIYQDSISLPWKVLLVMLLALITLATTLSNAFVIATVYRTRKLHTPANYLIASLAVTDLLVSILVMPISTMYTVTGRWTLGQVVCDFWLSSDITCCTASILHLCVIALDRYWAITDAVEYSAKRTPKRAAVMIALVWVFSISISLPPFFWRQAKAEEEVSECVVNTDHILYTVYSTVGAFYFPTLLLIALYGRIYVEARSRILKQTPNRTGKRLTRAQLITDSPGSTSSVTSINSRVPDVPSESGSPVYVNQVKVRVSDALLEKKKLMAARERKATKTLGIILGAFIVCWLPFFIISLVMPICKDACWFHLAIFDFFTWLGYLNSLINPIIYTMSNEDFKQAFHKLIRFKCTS
The target in test [6] is T2, 5-hydroxytryptamine receptor 1A (Rattus norvegicus, UniProt P19327).
T2 sequence (P19327 whole entry): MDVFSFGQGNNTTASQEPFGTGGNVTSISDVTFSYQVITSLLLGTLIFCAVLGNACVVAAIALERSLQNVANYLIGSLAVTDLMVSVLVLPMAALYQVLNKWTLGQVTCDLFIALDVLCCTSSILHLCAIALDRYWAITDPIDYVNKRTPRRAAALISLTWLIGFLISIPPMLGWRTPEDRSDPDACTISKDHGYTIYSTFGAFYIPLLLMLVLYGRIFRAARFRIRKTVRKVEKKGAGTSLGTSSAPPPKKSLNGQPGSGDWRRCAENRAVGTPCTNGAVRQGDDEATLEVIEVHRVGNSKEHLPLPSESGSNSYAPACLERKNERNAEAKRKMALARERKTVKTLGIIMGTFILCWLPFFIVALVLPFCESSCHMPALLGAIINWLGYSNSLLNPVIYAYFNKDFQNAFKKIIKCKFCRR
The experiment in a line: Binding affinity against 5-hydroxytryptamine 1A receptor from CHO-K1 cells, using [3H]8-OH-DPAT as the radioligand. The class given is cell-based.

Test [7] deals with Rattus norvegicus. The experiment in a line: In vivo for 5-HTP accumulation in corpus striatum against reserpine-pretreated rats. The format is functional.
Test [8] has as its system Rattus norvegicus. The experiment in a line: In vivo for 5-HTP accumulation in hemispheres (cortex) against reserpine-pretreated rats. The format is functional.
The subject of test [9] is Rattus norvegicus. The experiment in a line: In vivo for DOPA accumulation in limbic system against reserpine-pretreated rats. The class given is functional.
The target of test [10] is T3, D(3) dopamine receptor (Rattus norvegicus, UniProt P19020). The experiment in a line: Binding affinity against Dopamine receptor D3 expressed in CHO-K1 cells, using [3H]spiperone as the radioligand. The class given is cell-based.
T3 sequence (P19020 whole entry): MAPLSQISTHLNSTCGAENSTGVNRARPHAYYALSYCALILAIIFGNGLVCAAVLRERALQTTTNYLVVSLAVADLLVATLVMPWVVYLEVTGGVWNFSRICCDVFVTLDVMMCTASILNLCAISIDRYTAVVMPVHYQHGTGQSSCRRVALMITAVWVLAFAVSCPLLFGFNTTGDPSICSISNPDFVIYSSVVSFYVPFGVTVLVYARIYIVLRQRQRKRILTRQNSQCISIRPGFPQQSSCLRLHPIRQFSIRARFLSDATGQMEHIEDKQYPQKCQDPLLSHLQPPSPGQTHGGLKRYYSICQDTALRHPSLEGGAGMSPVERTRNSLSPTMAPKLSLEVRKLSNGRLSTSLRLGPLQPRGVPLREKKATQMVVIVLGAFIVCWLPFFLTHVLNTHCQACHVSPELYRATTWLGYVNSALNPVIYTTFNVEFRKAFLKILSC
Test [11] has as its system Rattus norvegicus. The experiment in a line: The Compound was tested in vivo for DOPA accumulation in hemispheres (cortex) against reserpine-pretreated rats; I=inactive at the highest dose tested (3.1). The class given is functional, organism-based.
Test [12] deals with T1, D(2) dopamine receptor. Kind of test: Binding affinity against Dopamine receptor D2 expressed in CHO-K1 cells, using [3H]U-86170 as the radioligand. The class given is cell-based.
Test [13] concerns the target 5-hydroxytryptamine receptor 1D (Homo sapiens, UniProt P28221). Kind of test: Binding affinity against 5-hydroxytryptamine 1D receptor alpha expressed in CHO-K1 cells, using [3H]-5-HT as the radioligand. The class given is cell-based. The conditions noted are these: read-out: Ki.
For test [14], the system named is Rattus norvegicus. The experiment in a line: The Compound was tested in vivo for DOPA accumulation in limbic system against reserpine-pretreated rats; P=significant partial reduction only at the highest dose tested (50). The format is functional, organism-based.
For test [15], the system named is Rattus norvegicus. Kind of test: The Compound was tested in vivo for DOPA accumulation in hemispheres (cortex) against reserpine-pretreated rats;I= inactive at the highest dose tested (50). The class given is functional, organism-based.
For test [16], the system named is Rattus norvegicus. Kind of test: Compound was tested in vivo for DOPA accumulation in corpus striatum against reserpine-pretreated rats;P= significant partial reduction only at the highest dose tested (50). The format is functional, organism-based.
The target in test [17] is T3, D(3) dopamine receptor. The experiment in a line: Binding affinity against Dopamine receptor D3 from CHO-K1 cells, using [3H]spiperone as the radioligand. The class given is cell-based. The conditions noted are these: for pKi: read-out: Ki.
Test [18] deals with Rattus norvegicus. Kind of test: compound was tested in vivo for 5-HTP accumulation in corpus striatum against reserpine-pretreated rats, activity expressed as ED50. The class given is functional.
In test [19] the test system is Rattus norvegicus. Kind of test: The compound was tested in vivo for DOPA accumulation in hemispheres (cortex) against reserpine-pretreated rats;I= inactive at the highest dose tested. The format is functional, organism-based.

For orientation: ED50 means the midpoint of the dose-response relation. For orientation: pKi means the Ki on a negative log10 scale, so that one unit is a factor of ten.

pKi: −log10 of the molar value. Activity calls are given as the source filed them. No cut-off for these calls is given here.

5-hydroxytryptamine receptor 1D, sequence (P28221 whole entry): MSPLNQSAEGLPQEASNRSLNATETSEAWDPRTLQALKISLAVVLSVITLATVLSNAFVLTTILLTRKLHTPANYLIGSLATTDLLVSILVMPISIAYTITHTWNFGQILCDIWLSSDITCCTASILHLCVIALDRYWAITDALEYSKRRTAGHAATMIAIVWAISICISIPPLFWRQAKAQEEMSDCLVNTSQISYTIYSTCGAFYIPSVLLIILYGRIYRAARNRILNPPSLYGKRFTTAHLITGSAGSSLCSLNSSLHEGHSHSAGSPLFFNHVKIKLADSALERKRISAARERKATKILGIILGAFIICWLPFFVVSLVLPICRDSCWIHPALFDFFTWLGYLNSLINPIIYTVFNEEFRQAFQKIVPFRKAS
T1 sequence (P61169 whole entry): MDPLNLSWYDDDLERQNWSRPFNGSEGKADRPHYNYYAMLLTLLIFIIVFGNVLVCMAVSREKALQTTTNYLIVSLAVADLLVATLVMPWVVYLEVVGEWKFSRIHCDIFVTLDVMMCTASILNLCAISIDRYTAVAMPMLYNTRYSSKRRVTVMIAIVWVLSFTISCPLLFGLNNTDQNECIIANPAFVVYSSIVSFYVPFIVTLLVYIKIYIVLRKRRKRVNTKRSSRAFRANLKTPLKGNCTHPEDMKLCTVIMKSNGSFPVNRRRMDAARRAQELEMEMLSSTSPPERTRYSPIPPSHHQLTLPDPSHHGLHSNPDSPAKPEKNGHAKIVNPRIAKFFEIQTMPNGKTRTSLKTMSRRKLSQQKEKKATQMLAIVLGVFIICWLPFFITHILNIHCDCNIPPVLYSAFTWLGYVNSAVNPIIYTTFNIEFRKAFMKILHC

Regarding `CCCN(CCC)[C@H]1CCc2cc(F)c3[nH]ccc3c2C1`, the ED50 in the test with Rattus norvegicus [1] stood at 0.74 µmol/kg; with Rattus norvegicus [3], 0.43 µmol/kg; in the test on Rattus norvegicus [7] it was 0.42 µmol/kg; with Rattus norvegicus [8], 0.83 µmol/kg; in the test with Rattus norvegicus [9], 0.8 µmol/kg. For the same compound, the pKi on D(2) dopamine receptor [2] is 8.36; in [5] it was 6.02; in [6], 8.43. Moreover, the ED50 result in the test on Rattus norvegicus [4] was “inactive”.

`CCCN(CCC)C1CCc2cc(F)c3[nH]ccc3c2C1` (stereo not drawn): the ED50 is 1.92 µmol/kg in the test with Rattus norvegicus [1]; 1 µmol/kg with Rattus norvegicus [3]; 0.06 µmol/kg in the test with Rattus norvegicus [7]; 0.54 µmol/kg in the test with Rattus norvegicus [8]; 1.17 µmol/kg with Rattus norvegicus [9]. Besides, the pKi at D(2) dopamine receptor [2] is 8.55; in [5], 6.67; in test [6] it was 8.85. Besides, the ED50 entry in the test with Rattus norvegicus [4] is “inactive”.

`CCCN(CCC)[C@H]1CCc2ccc3[nH]ccc3c2C1`: the ED50 came to 0.21 µmol/kg with Rattus norvegicus [1]; 0.82 µmol/kg in the test with Rattus norvegicus [3]; 0.34 µmol/kg in the test on Rattus norvegicus [7]; 0.23 µmol/kg with Rattus norvegicus [8]; 0.51 µmol/kg in the test on Rattus norvegicus [9]. Further, the pKi at D(3) dopamine receptor [10] is 7.66; in test [5], 5.64; on D(2) dopamine receptor [12], 7.77; in test [13] it was 6.36. For the same compound, the ED50 entry in the test with Rattus norvegicus [11] is “inactive”.

Consider `CCCN(CCC)C1CCc2ccc3[nH]cc(C)c3c2C1` (stereo not drawn), for which the values for the pKi (at D(3) dopamine receptor [10]; in test [13]) were 7.17 and 7.37, respectively.

Turning to `CCCN(CCC)C1CCc2ccc3[nH]cc(C(C)=O)c3c2C1` (stereo not drawn), the ED50 in the test with Rattus norvegicus [1] is 15.5 µmol/kg; in the test with Rattus norvegicus [14] it was “Weak activity”; in the test on Rattus norvegicus [16], “Weak activity”; in the test on Rattus norvegicus [7] it was 16 µmol/kg; with Rattus norvegicus [8] it was 13 µmol/kg. The ED50 result in the test on Rattus norvegicus [15] was “inactive”. Besides, the pKi at D(3) dopamine receptor [10] was 6.49; in test [5] it was 6.23; in test [6], 7.85; on D(2) dopamine receptor [12], 6.69; in [13], 6.97.

As to `CCCN(CCC)[C@@H]1CCc2ccc3[nH]ccc3c2C1`, the values for the ED50 in the test with Rattus norvegicus [1], in the test with Rattus norvegicus [7] and in the test on Rattus norvegicus [9] were 0.21 µmol/kg, 0.17 µmol/kg and 0.15 µmol/kg, respectively. Besides, the pKi on D(3) dopamine receptor [10] is 7.52; in [5], 6.86; on D(2) dopamine receptor [12], 8.13; in test [13], 7.80. Besides, the ED50 result in the test with Rattus norvegicus [11] was “inactive”.

With `CCCc1c[nH]c2c(F)cc3c(c12)CC(N(CCC)CCC)CC3` (stereo not drawn), the pKi on D(3) dopamine receptor [17] is 6.95; at D(2) dopamine receptor [2] it was 8.23; in test [5], 6.75; in test [6], 7.96; in test [13], 8.08.

As to `CCCN(CCC)[C@@H]1CCc2cc(F)c3[nH]ccc3c2C1`, the ED50 with Rattus norvegicus [1] was found to be 0.53 µmol/kg; in the test with Rattus norvegicus [3], 0.63 µmol/kg; in the test with Rattus norvegicus [7], 0.7 µmol/kg; in the test on Rattus norvegicus [8] it was 0.51 µmol/kg; in the test on Rattus norvegicus [9], 0.49 µmol/kg. Besides, the results for the pKi (at D(2) dopamine receptor [2]; in [5]; in [6]) were 8.11, 6.85 and 8.82, respectively. Besides, the ED50 result in the test with Rattus norvegicus [4] is “inactive”.

For `CCCN(CCC)C1CCc2ccc3[nH]cc(C(=O)c4ccccc4)c3c2C1` (stereo not drawn), the pKi is 6.97 at D(3) dopamine receptor [10], 8.07 in test [6] and 6.75 on D(2) dopamine receptor [12].

Take `CCCN(CCC)C1CCc2ccc3[nH]cc(C(=O)C(=O)N(CC)CC)c3c2C1` (stereo not drawn): the pKi in test [6] was 8.14.

On to `CCCN(CCC)[C@@H]1CCc2ccc3[nH]cc(C(=O)C(N)=O)c3c2C1`, for which, on D(3) dopamine receptor [17] (cho-k1), the Ki result was “Not Active”. The pKi on D(2) dopamine receptor [2] is 6.33; in test [5], 6.07; in test [6], 7.77; in test [13], 7.27.

As for `CCCN(CCC)[C@H]1CCc2ccc3[nH]cc(C=O)c3c2C1`, the pKi is 6.12 on D(3) dopamine receptor [17], 6.37 on D(2) dopamine receptor [2], 6.03 in test [5] and 6.81 in test [13]. The ED50 with Rattus norvegicus [18] amounted to 0.0052 µmol/kg. In addition, in the test on Rattus norvegicus [19], the ED50 result was “inactive”.

Take `CCCN(CCC)C1CCc2cc(F)c3c(ccn3C)c2C1` (stereo not drawn): the pKi on D(3) dopamine receptor [17] is 7.28; at D(2) dopamine receptor [2] it was 7.07; in [5] it was 5.78; in test [6], 6.60; in test [13] it was 6.66.

Values taken from ChEMBL document CHEMBL1128401, “Structure-activity relationships in the 8-amino-6,7,8,9-tetrahydro-3H-benz[e]indole ring system. 1. Effects of substituents in the aromatic system on serotonin and dopamine receptor subtypes” (J Med Chem, 1995).
